# Experiments:
# superoxide anion = assay: Direct superoxide anion scavenging by EPR spectroscopy (DEPMPO spin-trap) in PMA-stimulated isolated human neutrophils; format: cell-based; details: aqueous phase; statistical mixture of stereoisomers and individual stereoisomers
# Experimental: Leukocyte Isolation and Preparation. Human polymorphonuclear leukocytes (PMNs) were isolated from freshly sampled venous blood of a single volunteer by Percoll density gradient centrifugation as described previously. Briefly, each 10 mL of whole blood was mixed with 0.8 mL of 0.1 M EDTA and 25 mL of saline. The diluted blood was then layered over 9 mL of Percoll at a specific density of 1.080 g/mL. After centrifugation at 400×g for 20 min at 20° C., the plasma, mononuclear cell, and Percoll layers were removed. Erythrocytes were subsequently lysed by addition of 18 mL of ice-cold water for 30 s, followed by 2 mL of 10× PIPES buffer (25 mM PIPES, 110 mM NaCl, and 5 mM KCl, titrated to pH 7.4 with NaOH). Cells were then pelleted at 4° C., the supernatant was decanted, and the procedure was repeated. After the second hypotonic cell lysis, cells were washed twice with PAG buffer [PIPES buffer containing 0.003% human serum albumin (HSA) and 0.1% glucose]. Afterward, PMNs were counted by light microscopy on a hemocytometer. The isolation yielded PMNs with a purity of >95%. The final pellet was then suspended in PAG-CM buffer (PAG buffer with 1 mM CaCl2 and 1 mM MgCl2). EPR Measurements. All EPR measurements were performed using a Bruker ER 300 EPR spectrometer operating at X-band with a TM110 cavity as previously described. The microwave frequency was measured with a Model 575 microwave counter (EIP Microwave, Inc., San Jose, Calif.). To measure superoxide anion (O2) generation from phorbol-ester (PMA)-stimulated PMNs, EPR spin-trapping studies were performed using the spin trap DEPMPO (Oxis, Portland, Oreg.) at 10 mM. 1×10^6 PMNs were stimulated with PMA (1 ng/mL) and loaded into capillary tubes for EPR measurements. To determine the radical scavenging ability of 3 and 9 in aqueous and ethanolic formulations, PMNs were pre-incubated for 5 minutes with test compound, followed by PMA stimulation.
# Instrument settings used in the spin-trapping experiments were as follows: modulation amplitude, 0.32 G; time constant, 0.16 s; scan time, 60 s; modulation frequency, 100 kHz; microwave power, 20 milliwatts; and microwave frequency, 9.76 GHz. The samples were placed in a quartz EPR flat cell, and spectra were recorded. The component signals in the spectra were identified and quantified as reported previously.
# [1] = test system: differential cell counts (macrophages, monocytes, eosinophils, lymphocytes, neutrophils, and erythrocytes); assay: Thioglycollate/Zymosan-induced peritonitis model: differential cell counts of peritoneal lavage cells; format: in vivo, mice; design: RBC, MEAN / RBC, MEDIAN / WBC, MEAN / WBC, MEDIAN: unit not given here
# Experimental: (§1) Thioglycollate/Zymosan—Induced Peritonitis Model: Wild-type mice were administered either 500 mg/kg body weight of disodium disuccinate astaxanthin (ddAst/Cardax™) in an oil emulsion vehicle, or normal saline (NS) as a negative control, by oral gavage at 24 hours intervals beginning 7 days prior to the induction of peritonitis. Peritonitis was induced experimentally as follows: mice were injected intraperitoneally with 1 ml of 4% by weight thioglycollate (Tg) broth, to induce the recruitment of proinflammatory cells to the peritoneum. Either 16 hours or 72 hours after recruitment, approximately half of the mice were injected intraperitoneally with 250 mg/kg body weight of zymosan (Z) for a further 4 hours. The mice not receiving zymosan underwent no further treatment. Peritoneal lavage was performed in control animals or animals treated with (ddAst) 16 hours post Tg injection, or 20 h following the combination of both Tg injection (16 hours) followed by Z injection (4 hours), as indicated (Tg/Z). Peritoneal lavages were performed with phosphate-buffered saline containing antioxidant (0.1 mM butylated hydroxytoluene (BHT)) and 2 mM of the metal chelator diethylenetriamine pentaacetic acid (DTPA) according to established practices in the art. The lavage suspensions were transferred to screw-capped tubes under an argon atmosphere, and immediately centrifuged at 1000 rpm in a table top microcentrifuge for 10 min at 4° C. to remove whole cells and debris. All analyses of lipid peroxidation products was performed on cell-free lavage supernatants. Cell pellets were resuspended in phosphate-buffered saline containing 0.1 mM BHT and 0.1 mM DTPA, and differential cell counts (macrophages, monocytes, eosinophils, lymphocytes, neutrophils, and erythrocytes) were performed on cytospun preparations of isolated cells according to established procedures in the art.
# o-tyrosine (oY/F) = assay: Thioglycollate/Zymosan-induced peritonitis model: molar ratios of o-tyrosine (oY/F); format: in vivo, mice
# Experimental: as §1
# Electrospray ionization tandem mass spectrometry was used to simultaneously quantify individual molecular species of HETEs, HPETEs, the prostaglandin PGF2α, F2-isoprostanoids, hydroxy- and hydroperoxy-octadecadienoic acids (H(P)ODEs), and their precursors, arachidonic acid (AA) and linoleic acid (LA). Additionally, the molar ratios of o-tyrosine (oY/F). were measured.
# [2] = Single- and multiple-dose pharmacokinetics of an oral preparation in a murine model; format: in vivo; details: oral preparation of the racemic compound in lipophilic emulsion
# [3] = test system: ischemia-reperfusion injury; assay: Ischemia-reperfusion injury, experimental infarction model; format: in vivo, rodents; details: intravenous pretreatment
# [4] = 16 Hour Thioglycollate/4 Hour Zymosan
# [5] = 72 Hour Thioglycollate/4 Hour Zymosan
smiles,measurement,setting,value
"CC1=C(/C=C/C(C)=C/C=C/C(C)=C/C=C/C=C(C)/C=C/C=C(C)/C=C/C2=C(C)C(=O)C(OC(=O)CCC(=O)O)CC2(C)C)C(C)(C)CC(OC(=O)CCC(=O)O)C1=O (stereo not shown) [Cardax, disodium disuccinate astaxanthin]",direct scavenging of superoxide anion,superoxide anion,potent direct scavengers of superoxide anion in the aqueous phase
same,"ALV MAC %, MEAN",[1]; 16 Hour Thioglycollate,3.000%
same,"EOSIN %, MEAN",[1]; 16 Hour Thioglycollate,6.000%
same,"LYMPHS %, MEAN",[1]; 16 Hour Thioglycollate,23.000%
same,"MONOS %, MEAN",[1]; 16 Hour Thioglycollate,39.667%
same,"NEUTRO %, MEAN",[1]; 16 Hour Thioglycollate,25.333%
same,"OTHER %, MEAN",[1]; 16 Hour Thioglycollate,2.667%
same,"RBC, MEAN",[1]; 16 Hour Thioglycollate,449.33
same,"REACTIVE %, MEAN",[1]; 16 Hour Thioglycollate,0.333%
same,"RES EP %, MEAN",[1]; 16 Hour Thioglycollate,0.000%
same,"WBC, MEAN",[1]; 16 Hour Thioglycollate,528.67
same,"ALV MAC %, MEDIAN",[1]; 16 Hour Thioglycollate,3.000%
same,"EOSIN %, MEDIAN",[1]; 16 Hour Thioglycollate,4.000%
same,"LYMPHS %, MEDIAN",[1]; 16 Hour Thioglycollate,19.000%
same,"MONOS %, MEDIAN",[1]; 16 Hour Thioglycollate,35.000%
same,"NEUTRO %, MEDIAN",[1]; 16 Hour Thioglycollate,21.000%
same,"OTHER %, MEDIAN",[1]; 16 Hour Thioglycollate,2.000%
same,"RBC, MEDIAN",[1]; 16 Hour Thioglycollate,350.00
same,"REACTIVE %, MEDIAN",[1]; 16 Hour Thioglycollate,0.000%
same,"RES EP %, MEDIAN",[1]; 16 Hour Thioglycollate,0.000%
same,"WBC, MEDIAN",[1]; 16 Hour Thioglycollate,475.00
same,"ALV MAC %, MEAN",[1]; 72 Hour Thioglycollate,15.667%
same,"EOSIN %, MEAN",[1]; 72 Hour Thioglycollate,1.667%
same,"LYMPHS %, MEAN",[1]; 72 Hour Thioglycollate,53.000%
same,"MONOS %, MEAN",[1]; 72 Hour Thioglycollate,27.000%
same,"NEUTRO %, MEAN",[1]; 72 Hour Thioglycollate,0.000%
same,"OTHER %, MEAN",[1]; 72 Hour Thioglycollate,2.333%
same,"RBC, MEAN",[1]; 72 Hour Thioglycollate,90.333
same,"REACTIVE %, MEAN",[1]; 72 Hour Thioglycollate,0.333%
same,"RES EP %, MEAN",[1]; 72 Hour Thioglycollate,0.000%
same,"WBC, MEAN",[1]; 72 Hour Thioglycollate,435.33
same,"ALV MAC %, MEDIAN",[1]; 72 Hour Thioglycollate,15.000%
same,"EOSIN %, MEDIAN",[1]; 72 Hour Thioglycollate,1.000%
same,"LYMPHS %, MEDIAN",[1]; 72 Hour Thioglycollate,55.000%
same,"MONOS %, MEDIAN",[1]; 72 Hour Thioglycollate,32.000%
same,"NEUTRO %, MEDIAN",[1]; 72 Hour Thioglycollate,0.000%
same,"OTHER %, MEDIAN",[1]; 72 Hour Thioglycollate,2.000%
same,"RBC, MEDIAN",[1]; 72 Hour Thioglycollate,69.000
same,"REACTIVE %, MEDIAN",[1]; 72 Hour Thioglycollate,0.000%
same,"RES EP %, MEDIAN",[1]; 72 Hour Thioglycollate,0.000%
same,"WBC, MEDIAN",[1]; 72 Hour Thioglycollate,448.00
same,"oY/F (mmol/mol), MEAN",o-tyrosine (oY/F); [4],0.145 mmol/mol
same,"oY/F (mmol/mol), MEDIAN",o-tyrosine (oY/F); [4],0.117 mmol/mol
same,"oY/F (mmol/mol), MEAN",o-tyrosine (oY/F); 16 Hour Thioglycollate,0.678 mmol/mol
same,"oY/F (mmol/mol), MEDIAN",o-tyrosine (oY/F); 16 Hour Thioglycollate,0.521 mmol/mol
same,"oY/F (mmol/mol), MEAN",o-tyrosine (oY/F); [5],0.249 mmol/mol
same,"oY/F (mmol/mol), MEDIAN",o-tyrosine (oY/F); [5],0.118 mmol/mol
same,"oY/F (mmol/mol), MEAN",o-tyrosine (oY/F); 72 Hour Thioglycollate,0.257 mmol/mol
same,"oY/F (mmol/mol), MEDIAN",o-tyrosine (oY/F); 72 Hour Thioglycollate,0.198 mmol/mol
same,oY/F compared to NS,"o-tyrosine (oY/F); 16 hours Tg/4 hour Z, 500 mg/kg oral gavage",significant decrease
same,"oY/F (mmol/mol), MEAN",o-tyrosine (oY/F); Baseline,0.595 mmol/mol
same,"oY/F (mmol/mol), MEDIAN",o-tyrosine (oY/F); Baseline,0.565 mmol/mol
same,plasma and tissue levels of nonesterified astaxanthin,[2],significant plasma and tissue levels of nonesterified astaxanthin were achieved
same,cardioprotection,[3],significantly cardioprotective
same,myocardial salvage,[3]; highest dose tested,up to 56%

# From patent US7691901B2, “Carotenoid analogs or derivatives for the inhibition and amelioration of inflammation” (Cardax Pharmaceuticals Inc., priority 2004, dated 2010)
